Assay results: US10544095B2 (Pfizer Inc., priority 2015, dated 2020)

target: hTDO2 in human glioblastoma A172 cells (Homo sapiens (Human), UniProt P48775); experiment: Cellular assay for TDO2 activity determination in A172 cells; assay type: cell-based; conditions: overnight incubation, kynurenine absorbance at 480 nm
Description: The compounds of formula I inhibit the activity of human TDO2 in cells that constitutively express TDO2, such as A172 cells. A172 is a cell line derived from human brain glioblastoma cells. The cells are available from the American Type Culture Collection (ATCC®) as CRL-1620™.
The assay (adapted from Pilotte L et al., Proc Natl Acad Sci USA, 2012, 109(7), 2497-502) was performed in 96-well flat bottom plates seeded with human glioblastoma A172 cells, naturally expressing hTDO2 (prepared as described in Tilman et al., Mol Cancer, 2007, 17(6), 80), at a concentration of 1.25×10^4 cells/well in a final volume of 200 μL. To determine TDO, the cells were incubated overnight at 37° C. at 5% CO2 in IMDM (Invitrogen) supplemented with 2% FBS and 2% penicillin/streptomycin in the presence of the compounds of the present invention, at different concentrations.
The plates were then centrifuged 5 min at 1000 rpm, and 100 μL of the supernatant were collected in a conical plate, 30 μL of TCA 30% were added and a further centrifuged at 3000×g for 10 minutes. 100 μL of the supernatant were collected in a flat bottomed plate and 100 μL of 2% (w/v) 4-(dimethylamino)-benzaldehyde in acetic acid and incubated for 5 min at room temperature. Kynurenine concentrations were determined by measuring the absorbance at 480 nm. A standard curve was made with pure kynurenine. The TDO activity was measured as described above using ten serial concentrations of the compounds of the present invention. Data were fitted using the Prism™ software (GraphPad Software, Inc.) using standard parameters.

hTDO2 in human glioblastoma A172 cells, sequence (P48775 whole entry): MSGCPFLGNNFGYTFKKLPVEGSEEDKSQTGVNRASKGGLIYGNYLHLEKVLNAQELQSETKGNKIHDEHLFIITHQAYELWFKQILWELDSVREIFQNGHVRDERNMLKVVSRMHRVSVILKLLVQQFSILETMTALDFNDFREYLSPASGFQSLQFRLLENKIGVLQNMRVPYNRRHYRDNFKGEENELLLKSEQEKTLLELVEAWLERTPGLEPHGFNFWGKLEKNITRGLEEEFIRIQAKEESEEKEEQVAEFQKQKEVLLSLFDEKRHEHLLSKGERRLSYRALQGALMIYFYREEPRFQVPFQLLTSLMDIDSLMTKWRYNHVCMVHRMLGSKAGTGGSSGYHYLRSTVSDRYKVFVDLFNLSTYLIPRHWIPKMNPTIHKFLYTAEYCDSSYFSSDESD

Row | Compound | IC50
1 | CNCCc1cc(-c2c[nH]c3cc(F)ccc23)ccc1S(N)(=O)=O [Example 140, 4-(6-fluoro-1H-indol-3-yl)-2-(2-(methylamino)ethyl)-benzenesulfonamide] | 541 nM
2 | NCCCN1CCN(S(=O)(=O)c2ccc(-c3c[nH]c4cc(F)ccc34)cc2)CC1=O [Example 152, 1-(3-aminopropyl)-4-((4-(6-fluoro-1H-indol-3-yl)phenyl-)sulfonyl)piperazin-2-one] | 1320 nM
3 | O=S(=O)(N[C@@H]1CCOC1)c1ccc(-c2c[nH]c3cc(F)ccc23)cc1 [Example 55, (R)-4-(6-fluoro-1H-indol-3-yl)-N-(tetrahydrofuran-3-yl)-benzenesulfonamide] | 210 nM
4 | O=S(=O)(c1ccc(-c2c[nH]c3cc(F)ccc23)cc1)N1CCC(O)C1 (centres unmarked) [Example 124, 1-((4-(6-fluoro-1H-indol-3-yl)phenyl)sulfonyl) pyrrolidin-3-ol] | 93500 nM
5 | O=S(=O)(NC1CCOCC1)c1ccc(-c2c[nH]c3cc(F)ccc23)cc1 [Example 46, 4-(6-fluoro-1H-indol-3-yl)-N-(tetrahydro-pyran-4-yl)-benzenesulfonamide] | 220 nM
6 | CC(C)CC(=O)n1cc(-c2ccc(S(=O)(=O)N3CCNCC3)cc2)c2ccc(F)cc21 [Example 52, 1-(6-fluoro-3-(4-(piperazin-1-ylsulfonyl)phenyl)-1H-indol-1-yl)-3-methylbutan-1-one] | 1700 nM
7 | O=S(=O)(c1ccc(-c2c[nH]c3cc(F)ccc23)cc1)N1CCOC[C@@H]1CO [Example 112, (S)-(4-((4-(6-fluoro-1H-indol-3-yl)phenyl)sulfonyl)morpholin-3-yl)methanol] | 116 nM
8 | O=S(=O)(c1ccc(-c2c[nH]c3cc(F)ccc23)cc1)N1CC[C@@H](O)[C@H](O)C1 [Example 130, (3R,4R)-1-((4-(6-fluoro-1H-indol-3-yl)phenyl)sulfonyl)piperidine-3,4-diol] | 96 nM

Next, values leading:

Row | IC50 | Compound
9 | 180 nM | NC(=O)C1CN(S(=O)(=O)c2ccc(-c3c[nH]c4cc(F)ccc34)cc2)C1 [Example 67, 1-((4-(6-fluoro-1H-indol-3-yl)phenyl)sulfonyl)azetidine-3-carboxamide]
10 | 247 nM | NS(=O)(=O)c1ccc(-c2c[nH]c3cc(F)ccc23)cc1CC(F)(F)F [Example 142, 4-(6-fluoro-1H-indol-3-yl)-2-(2,2,2-trifluoroethyl)-benzenesulfonamide]
11 | 4060 nM | CC(C)Oc1cc(-c2c[nH]c3cc(F)ccc23)ccc1S(=O)(=O)NCCC(N)=O [Example 166, 3-((4-(6-fluoro-1H-indol-3-yl)-2-isopropoxyphenyl)-sulfonamido)propanamide]
12 | 174 nM | NC(=O)Cc1cc(-c2c[nH]c3cc(F)ccc23)ccc1S(N)(=O)=O [Example 144, 2-(5-(6-fluoro-1H-indol-3-yl)-2-sulfamoylphenyl)-acetamide]
13 | 510 nM | O=S(=O)(c1ccc(-c2c[nH]c3cc(F)ccc23)cc1C(F)(F)F)N1CCNCC1 [Example 24, 6-fluoro-3-(4-(piperazin-1-ylsulfonyl)-3-(trifluoromethyl)-phenyl)-1H-indole]
14 | 360 nM | CN(C)CCCN1CCN(S(=O)(=O)c2ccc(-c3c[nH]c4cc(F)ccc34)cc2)CC1=O [Example 154, 1-(3-(dimethylamino)propyl)-4-((4-(6-fluoro-1H-indol-3-yl)phenyl)sulfonyl) piperazine-2-one]
15 | 3160 nM | CN(C)C(=O)Cc1cc(-c2c[nH]c3cc(F)ccc23)ccc1S(N)(=O)=O [Example 138, 2-(5-(6-fluoro-1H-indol-3-yl)-2-sulfamoylphenyl)-N,N-dimethylacetamide]
16 | 109 nM | O=S(=O)(c1ccc(-c2c[nH]c3cc(F)ccc23)cc1)N(CCO)CCCO [Example 117, 4-(6-fluoro-1H-indol-3-yl)-N-(2-hydroxyethyl)-N-(3-hydroxypropyl)benzenesulfonamide]
17 | 79 nM | CS(=O)(=O)c1ccc(-c2c[nH]c3cc(F)ccc23)cc1CCO [Example 179, 2-(5-(6-fluoro-1H-indol-3-yl)-2-(methylsulfonyl)phenyl)ethanol]
